Source: patent US6867179B1, “Methods of inducing hair growth and coloration” (Trustees of Boston University, priority 1994, dated 2005)

What was measured:
Format in all cases: cell-based, human
p75 NGF-R = assay: Northern blot of p75 NGF-R mRNA in NGF-supplemented melanocytes
Keratinocytes = assay: Keratinocyte DNA fragmentation and cell yield after UV irradiation with NGF
Protocol: Keratinocytes were plated in 60 mm diameter tissue culture dishes in MCDB153 supplemented with epidermal growth factor (0.1 ng/ml human recombinant), insulin (5 microg/ml), hydrocortisone (0.5 microg/ml, calcium (0.15 mM), bovine pituitary extract (BPE), (2 ml per 500 ml medium), gentamicin (50 microg/ml), and amphotericin-B (50 ng/ml) (karetinocyte basal medium). Preconfluent cells were irradiated in phosphate buffered saline PBS) using a 1 KW xenon arc solar simulator (XMN 1000-21, Optical Radiation Corp., Azuza, Calif.) with 15 or 25 mJ/cm^2 UV through the petri dish plastic cover as described in Example 7. After UV irradiation, cells were maintained in their basal medium 3 days and processed as indicated. Sham irradiated control cultures were handled identically but placed under a dark cloth adjacent to the UV beam.
Cells were washed with cold PBS and disrupted in lysis buffer pH8 (10 mM tris, 150 mM NaCl, 0.1 mM EDTA, 1% SDS, 200 µg/ml proteinase K). After 15 hour incubation at […], samples were extracted twice with phenol plus chloroform (1:1, V/V) and precipitated overnight with ethanol (2.5×volume) and 3 M sodium acetate (1/10×volume). The DNA was then digested with DNAse free ribonuclease (10 microg/ml) for one hour at 37C, separated on 1% agarose gel and stained with ethidium bromide.
Keratinocytes were UV-irradiated as in Example 9. After irradiation cells were placed in fresh keratinocyte medium containing 50 ng/ml NGF or diluent alone. DNA fragmentation was determined as in Example 9. […] The standard (STD) is 100 bp DNA ladder (Gibco/BRL). […] UV irradiated keratinocytes were growth arrested as expected.

Bcl-2 protein = assay: Keratinocyte BCL-2 level after NGF deprivation (Western blot); conditions: medium lacking BPE, 50 ng/ml NGF versus diluent, 24 and 48 hours
Protocol: To determine if NGF affects BCL-2 protein level in keratinocytes, cells were maintained in Keratinocyte basal medium until 60-80% confluent. Then cells were provided medium lacking BPE to eliminate exogenous NGF. Duplicate cultures were provided 50 ng/ml NGF or diluent alone.
Total keratinocyte proteins were extracted, and BCL-2 levels were determined by Western blot analysis as in Example 6.

Substance: NGF: nerve growth factor, neurotrophin ligand of p75 NGF-R and trk
- p75 NGF-R mRNA transcript levels versus diluent controls (p75 NGF-R): several-fold higher
- DNA fragmentation of UV irradiated keratinocytes (Keratinocytes; 50 ng/ml NGF): not fragmented
- Increase in keratinocyte cell yields (Keratinocytes; NGF supplemented medium, within 5 days): 40%
- Decrease in keratinocyte cell yield (Keratinocytes; UV irradiated, 50 ng/ml NGF, within 24 hours, diluent 50%): 30%
- BCL-2 level in keratinocytes (Bcl-2 protein): contributes, at least in part, to BCL-2 maintenance
